From patent US20250326753A1, “DUAL CXCR4-BTK INHIBITORS” (X4 Pharmaceuticals, Inc., priority 2022, published 2025)
Where two headings read alike, the source gives them in different places.

Columns and labels:
Type in all cases: biochemical
RIPK2 = target: T1, RIPK2 (Homo sapiens, UniProt O43353); test: PanQinase kinase panel: RIPK2; details: read-out: INHIBITORY EFFECT @ 1 uM: RIPK2
T1 construct: purchased Reaction Biology Europe GmbH
Experimental: (§1) Screening procedures were performed in accordance with the company's on-line protocol [accessed on-line Mar.
(§2) For each kinase, the median value of the cpm of three wells was defined as “low control” (n=3). This value reflects unspecific binding of radioactivity to the plate in the absence of a protein kinase but in the presence of the substrate. Additionally, for each kinase the median value of the cpm of three other wells was taken as the “high control,” i.e. full activity in the absence of any inhibitor (n=3). The difference between high and low control of each enzyme was taken as 100% activity.
(§3) As part of the data evaluation the low control of each kinase was subtracted from the high control value as well as from their corresponding “compound values”. The residual activity (in %) for each compound well was calculated by using the following formula: Res. Activity (%)=100×[(signal of compound−low control)/(high control−low control)].

EPHB2 = target: T2, EPHB2 (Homo sapiens, UniProt P29323); test: PanQinase kinase panel: EPHB2; details: read-out: INHIBITORY EFFECT @ 1 uM: EPHB2
T2 construct: purchased Reaction Biology Europe GmbH
T2 sequence (P29323 19-1055): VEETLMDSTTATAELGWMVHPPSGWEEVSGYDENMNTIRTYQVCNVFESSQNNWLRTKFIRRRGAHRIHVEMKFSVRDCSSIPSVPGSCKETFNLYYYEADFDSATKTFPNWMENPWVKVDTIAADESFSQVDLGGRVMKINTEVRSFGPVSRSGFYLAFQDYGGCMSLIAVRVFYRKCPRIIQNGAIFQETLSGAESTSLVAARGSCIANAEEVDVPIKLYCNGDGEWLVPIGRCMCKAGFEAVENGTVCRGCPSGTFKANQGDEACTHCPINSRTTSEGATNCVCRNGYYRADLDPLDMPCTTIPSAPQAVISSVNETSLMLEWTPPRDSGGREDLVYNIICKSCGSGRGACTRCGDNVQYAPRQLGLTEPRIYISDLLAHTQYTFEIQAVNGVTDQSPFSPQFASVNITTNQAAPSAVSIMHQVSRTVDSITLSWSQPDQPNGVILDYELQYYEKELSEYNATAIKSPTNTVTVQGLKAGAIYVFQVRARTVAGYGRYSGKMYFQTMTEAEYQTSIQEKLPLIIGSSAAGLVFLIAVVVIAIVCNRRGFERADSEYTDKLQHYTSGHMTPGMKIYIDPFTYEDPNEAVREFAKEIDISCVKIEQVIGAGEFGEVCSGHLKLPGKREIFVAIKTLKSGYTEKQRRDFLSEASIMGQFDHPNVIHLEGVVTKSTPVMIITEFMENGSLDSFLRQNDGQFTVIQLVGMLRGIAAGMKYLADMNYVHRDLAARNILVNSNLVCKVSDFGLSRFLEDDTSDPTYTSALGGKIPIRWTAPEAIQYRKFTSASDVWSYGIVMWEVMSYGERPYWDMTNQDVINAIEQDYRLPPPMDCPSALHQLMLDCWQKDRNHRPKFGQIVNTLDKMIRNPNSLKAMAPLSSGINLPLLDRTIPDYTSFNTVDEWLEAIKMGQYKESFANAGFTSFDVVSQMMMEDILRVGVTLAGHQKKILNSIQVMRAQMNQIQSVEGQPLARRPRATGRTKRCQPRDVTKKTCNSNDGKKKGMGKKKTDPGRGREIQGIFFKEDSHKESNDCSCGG
Experimental: as §1, §2, §3

FGR = target: T3, FGR (Homo sapiens, UniProt P09769); test: PanQinase kinase panel: FGR; details: read-out: INHIBITORY EFFECT @ 1 uM: FGR
T3 construct: purchased Reaction Biology Europe GmbH
T3 sequence (P09769 whole entry): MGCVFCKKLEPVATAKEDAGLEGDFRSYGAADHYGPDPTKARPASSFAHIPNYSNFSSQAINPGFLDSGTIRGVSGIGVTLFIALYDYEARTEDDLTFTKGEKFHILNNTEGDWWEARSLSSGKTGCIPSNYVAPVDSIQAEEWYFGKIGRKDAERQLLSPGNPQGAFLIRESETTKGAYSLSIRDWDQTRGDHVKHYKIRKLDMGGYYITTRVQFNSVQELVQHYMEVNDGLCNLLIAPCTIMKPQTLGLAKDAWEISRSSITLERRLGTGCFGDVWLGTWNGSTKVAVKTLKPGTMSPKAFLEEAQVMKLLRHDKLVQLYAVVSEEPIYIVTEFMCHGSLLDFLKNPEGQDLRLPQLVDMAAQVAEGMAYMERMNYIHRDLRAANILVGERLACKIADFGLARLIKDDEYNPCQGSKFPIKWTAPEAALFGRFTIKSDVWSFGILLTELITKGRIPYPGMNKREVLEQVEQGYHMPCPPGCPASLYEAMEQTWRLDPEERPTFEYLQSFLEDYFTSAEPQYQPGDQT
Experimental: as §1, §2
(§4) As part of the data evaluation the low control of each kinase was subtracted from the high control value as well as from their corresponding “compound values”.

HCK = target: T4, HCK (Homo sapiens, UniProt P08631); test: PanQinase kinase panel: HCK; details: read-out: INHIBITORY EFFECT @ 1 uM: HCK
T4 construct: purchased Reaction Biology Europe GmbH
T4 sequence (P08631 whole entry): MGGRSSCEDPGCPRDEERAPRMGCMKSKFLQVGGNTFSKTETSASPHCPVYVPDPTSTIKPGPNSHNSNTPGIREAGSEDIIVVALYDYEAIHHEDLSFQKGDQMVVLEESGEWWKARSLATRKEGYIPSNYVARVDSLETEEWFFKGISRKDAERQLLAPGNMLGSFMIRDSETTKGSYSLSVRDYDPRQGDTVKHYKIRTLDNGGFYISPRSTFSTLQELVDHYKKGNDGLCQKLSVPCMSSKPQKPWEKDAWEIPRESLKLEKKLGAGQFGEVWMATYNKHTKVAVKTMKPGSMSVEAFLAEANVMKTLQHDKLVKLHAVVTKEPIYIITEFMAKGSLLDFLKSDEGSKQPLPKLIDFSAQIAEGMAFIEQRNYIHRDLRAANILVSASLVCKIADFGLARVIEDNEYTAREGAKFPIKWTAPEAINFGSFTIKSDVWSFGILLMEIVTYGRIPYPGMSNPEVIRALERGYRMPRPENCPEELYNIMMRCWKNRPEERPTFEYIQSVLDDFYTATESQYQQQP
Experimental: as §1, §2, §3

RAF1 YDYD = target: T5, RAF1 YDYD (Homo sapiens, UniProt P04049, Y340D/Y341D); test: PanQinase kinase panel: RAF1 YDYD; details: read-out: INHIBITORY EFFECT @ 1 uM: RAF1 YDYD
T5 construct: purchased Reaction Biology Europe GmbH
T5 sequence (P04049 307-648 Y340D/Y341D limits assumed): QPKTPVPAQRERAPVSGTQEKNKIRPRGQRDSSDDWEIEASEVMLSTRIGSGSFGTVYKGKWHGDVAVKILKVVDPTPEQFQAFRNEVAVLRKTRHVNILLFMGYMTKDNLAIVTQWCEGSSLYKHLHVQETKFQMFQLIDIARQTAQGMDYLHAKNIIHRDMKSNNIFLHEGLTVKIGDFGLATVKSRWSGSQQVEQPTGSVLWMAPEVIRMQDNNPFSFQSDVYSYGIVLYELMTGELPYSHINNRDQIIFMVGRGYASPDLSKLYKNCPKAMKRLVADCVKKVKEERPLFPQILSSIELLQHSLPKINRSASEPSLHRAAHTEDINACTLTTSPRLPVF
Experimental: as §1, §2, §3

ABL1 = target: T6, ABL1 (Homo sapiens, UniProt P00519); test: PanQinase kinase panel: ABL1
T6 construct: purchased Reaction Biology Europe GmbH
Experimental: as §1, §2, §3

CLK1 = target: T7, CLK1 (Homo sapiens, UniProt P49759); test: PanQinase kinase panel: CLK1
T7 construct: purchased Reaction Biology Europe GmbH
T7 sequence (P49759 whole entry): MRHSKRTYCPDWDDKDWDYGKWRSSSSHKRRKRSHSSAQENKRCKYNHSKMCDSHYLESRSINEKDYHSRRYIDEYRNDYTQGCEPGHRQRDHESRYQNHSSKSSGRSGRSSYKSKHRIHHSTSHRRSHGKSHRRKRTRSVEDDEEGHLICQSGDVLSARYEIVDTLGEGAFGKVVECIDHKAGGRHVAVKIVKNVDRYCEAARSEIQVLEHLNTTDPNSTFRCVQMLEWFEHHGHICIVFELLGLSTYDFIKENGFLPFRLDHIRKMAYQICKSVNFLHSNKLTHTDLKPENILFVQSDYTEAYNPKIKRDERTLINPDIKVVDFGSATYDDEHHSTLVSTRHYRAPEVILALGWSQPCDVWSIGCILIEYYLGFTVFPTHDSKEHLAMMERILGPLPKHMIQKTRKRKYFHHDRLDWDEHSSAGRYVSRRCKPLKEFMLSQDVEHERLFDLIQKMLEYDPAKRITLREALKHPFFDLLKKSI
Experimental: as §1, §2, §3

MAP3K11 = target: T8, MAP3K11 (Homo sapiens, UniProt Q16584); test: PanQinase kinase panel: MAP3K11
T8 construct: purchased Reaction Biology Europe GmbH
Experimental: as §1, §2, §4

MINK1 = target: T9, MINK1 (Homo sapiens, UniProt Q8N4C8); test: PanQinase kinase panel: MINK1; details: read-out: INHIBITORY EFFECT @ 1 uM: MINK1
T9 construct: purchased Reaction Biology Europe GmbH
T9 sequence (Q8N4C8 whole entry): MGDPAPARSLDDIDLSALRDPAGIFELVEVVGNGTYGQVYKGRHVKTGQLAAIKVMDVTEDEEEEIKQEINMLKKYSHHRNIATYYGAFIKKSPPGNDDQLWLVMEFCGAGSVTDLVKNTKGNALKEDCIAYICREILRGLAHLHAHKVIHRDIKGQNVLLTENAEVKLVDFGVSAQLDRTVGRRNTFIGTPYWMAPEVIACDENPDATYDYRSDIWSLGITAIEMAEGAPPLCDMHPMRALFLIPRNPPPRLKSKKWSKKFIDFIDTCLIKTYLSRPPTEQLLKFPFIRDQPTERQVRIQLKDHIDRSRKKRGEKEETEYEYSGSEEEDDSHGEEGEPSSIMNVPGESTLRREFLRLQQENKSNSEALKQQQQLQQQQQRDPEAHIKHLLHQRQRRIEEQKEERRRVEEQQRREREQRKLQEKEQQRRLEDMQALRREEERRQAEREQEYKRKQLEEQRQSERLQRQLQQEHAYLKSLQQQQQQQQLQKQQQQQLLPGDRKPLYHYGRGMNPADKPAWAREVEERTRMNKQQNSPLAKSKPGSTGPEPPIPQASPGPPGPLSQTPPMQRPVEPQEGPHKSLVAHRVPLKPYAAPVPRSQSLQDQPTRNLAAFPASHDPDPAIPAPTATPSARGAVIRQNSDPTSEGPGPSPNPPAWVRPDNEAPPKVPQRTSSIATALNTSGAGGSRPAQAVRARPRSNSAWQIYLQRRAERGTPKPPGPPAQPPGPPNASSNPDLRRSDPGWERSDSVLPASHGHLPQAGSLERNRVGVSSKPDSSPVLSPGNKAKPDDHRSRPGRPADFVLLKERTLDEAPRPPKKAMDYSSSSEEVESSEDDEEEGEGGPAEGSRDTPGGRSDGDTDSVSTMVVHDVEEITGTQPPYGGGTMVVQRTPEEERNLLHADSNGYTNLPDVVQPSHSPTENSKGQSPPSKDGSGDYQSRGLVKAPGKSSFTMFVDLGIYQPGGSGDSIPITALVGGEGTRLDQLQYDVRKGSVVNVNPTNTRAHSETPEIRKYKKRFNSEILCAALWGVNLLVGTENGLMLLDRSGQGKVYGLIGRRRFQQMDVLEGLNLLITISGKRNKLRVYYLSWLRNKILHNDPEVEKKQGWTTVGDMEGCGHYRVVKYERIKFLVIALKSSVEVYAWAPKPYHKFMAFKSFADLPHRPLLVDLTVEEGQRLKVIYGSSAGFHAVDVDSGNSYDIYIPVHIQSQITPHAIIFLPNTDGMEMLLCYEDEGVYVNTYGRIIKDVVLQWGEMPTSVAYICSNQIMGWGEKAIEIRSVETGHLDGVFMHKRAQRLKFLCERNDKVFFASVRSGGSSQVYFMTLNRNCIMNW
Experimental: as §1, §2, §3

BTK = BTK (Homo sapiens, UniProt Q06187); test: PanQinase kinase panel: BTK; design: purchased Reaction Biology Europe GmbH
BTK, sequence (Q06187 whole entry): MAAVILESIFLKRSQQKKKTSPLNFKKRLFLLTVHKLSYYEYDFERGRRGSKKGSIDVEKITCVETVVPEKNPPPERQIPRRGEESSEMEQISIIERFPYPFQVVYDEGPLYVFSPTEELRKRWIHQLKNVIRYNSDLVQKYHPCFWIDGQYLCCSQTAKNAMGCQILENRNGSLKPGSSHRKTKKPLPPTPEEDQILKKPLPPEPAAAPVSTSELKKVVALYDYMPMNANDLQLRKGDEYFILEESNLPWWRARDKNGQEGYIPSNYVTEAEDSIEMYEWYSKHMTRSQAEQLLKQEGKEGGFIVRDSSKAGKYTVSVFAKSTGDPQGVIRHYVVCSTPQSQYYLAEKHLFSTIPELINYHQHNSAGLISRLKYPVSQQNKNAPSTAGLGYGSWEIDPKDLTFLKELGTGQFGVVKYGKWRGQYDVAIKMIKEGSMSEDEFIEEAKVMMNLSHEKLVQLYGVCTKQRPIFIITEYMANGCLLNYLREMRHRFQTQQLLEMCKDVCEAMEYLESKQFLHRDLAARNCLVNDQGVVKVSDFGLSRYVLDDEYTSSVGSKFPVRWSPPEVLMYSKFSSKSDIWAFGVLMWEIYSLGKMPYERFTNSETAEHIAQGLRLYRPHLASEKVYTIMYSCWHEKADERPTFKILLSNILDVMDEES
Experimental: as §1, §2, §4

[1] = test system: 340 wild-type protein kinases; test: PanQinase wild-type kinase panel, selectivity score; details: 1 μM; for Selectivity Score: share of kinases with residual activity <50%, 340 wild-type protein kinase assays
Experimental: as §1
The selectivity score for a particular compound at a particular concentration was calculated by using the following formula: Selectivity Score=(count of data points <50%)/(total number of data points).

[2] = read-out: INHIBITORY EFFECT @ 1 uM: ABL1
[3] = read-out: INHIBITORY EFFECT @ 1 uM: CLK1
[4] = read-out: INHIBITORY EFFECT @ 1 uM: MAP3K11
[5] = read-out: INHIBITORY EFFECT @ 1 uM: BTK

T1 sequence (O43353 whole entry): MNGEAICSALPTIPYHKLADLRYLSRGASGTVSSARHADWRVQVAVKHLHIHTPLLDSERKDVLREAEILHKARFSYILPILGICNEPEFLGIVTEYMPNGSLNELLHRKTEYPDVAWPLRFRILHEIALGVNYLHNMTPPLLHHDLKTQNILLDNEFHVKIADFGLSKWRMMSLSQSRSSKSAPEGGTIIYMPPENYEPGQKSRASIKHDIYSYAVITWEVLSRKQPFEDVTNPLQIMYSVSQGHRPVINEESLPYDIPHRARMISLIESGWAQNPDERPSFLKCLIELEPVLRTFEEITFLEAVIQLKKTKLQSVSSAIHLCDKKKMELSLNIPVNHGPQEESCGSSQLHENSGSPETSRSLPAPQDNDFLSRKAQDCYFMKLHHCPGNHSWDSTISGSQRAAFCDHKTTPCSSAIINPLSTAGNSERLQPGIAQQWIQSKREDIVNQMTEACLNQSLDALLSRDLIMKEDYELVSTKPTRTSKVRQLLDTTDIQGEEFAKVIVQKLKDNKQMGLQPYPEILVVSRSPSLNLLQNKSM

Compound: COc1ccc(F)cc1C(=O)NCc1ccc(-c2nn([C@@H](C)C(F)(F)F)c(N)c2C(N)=O)cc1 [LOXO-305, pirtobrutinib]
- inhibition at 1 µM (RIPK2): < 50%
- inhibition at 1 µM (EPHB2): < 50%
- inhibition at 1 µM (FGR): < 50%
- inhibition at 1 µM (HCK): < 50%
- inhibition at 1 µM (RAF1 YDYD): < 50%
- inhibition at 1 µM (ABL1; [2]): < 50%
- inhibition at 1 µM (CLK1; [3]): < 50%
- inhibition at 1 µM (MAP3K11; [4]): < 50%
- inhibition at 1 µM (MINK1): < 50%
- inhibition at 1 µM (BTK; [5]): 90 to 100%

Compound: C=CC(=O)N1CCC([C@@H]2CCNc3c(C(N)=O)c(-c4ccc(Oc5ccccc5)cc4)nn32)CC1 [Zanubrutinib, (7S)-2-(4-phenoxyphenyl)-7-(1-prop-2-enoylpiperidin-4-yl)-4,5,6,7-tetrahydropyrazolo[1,5-a]pyrimidine-3-carboxamide]
- inhibition at 1 µM (RIPK2): 50 to 69%
- inhibition at 1 µM (EPHB2): < 50%
- inhibition at 1 µM (FGR): < 50%
- inhibition at 1 µM (RAF1 YDYD): < 50%
- inhibition at 1 µM (ABL1; [2]): < 50%
- inhibition at 1 µM (CLK1; [3]): < 50%
- inhibition at 1 µM (MAP3K11; [4]): < 50%
- inhibition at 1 µM (MINK1): < 50%

Compound: O=C(c1ccc(Oc2ccccc2)cc1Cl)c1c[nH]c2ncnc(N[C@@H]3CC[C@@H](CO)OC3)c12 [ARQ-531, (2-chloro-4-phenoxyphenyl) (4-(((3R,6S)-6-(hydroxymethyl)tetrahydro-2H-pyran-3-yl)amino)-7H-pyrrolo[2,3-d]pyrimidin-5-yl) methanone]
- inhibition at 1 µM (RIPK2): 90 to 100%
- inhibition at 1 µM (EPHB2): 70 to 89%
- inhibition at 1 µM (FGR): 70 to 89%
- inhibition at 1 µM (HCK): 70 to 89%
- inhibition at 1 µM (RAF1 YDYD): 70 to 89%
- inhibition at 1 µM (MINK1): 50 to 69%
- inhibition at 1 µM (BTK; [5]): 90 to 100%

Compound: Cc1cccnc1[C@H]1CCC[C@@H](c2ncccc2C)N1CCN1CCN(C(=O)c2ccc(-c3cc4c(-c5cccc(NC(=O)c6ccccc6)c5C)ncnc4[nH]3)cc2)CC1 [Compound I-10, N-(3-(6-(4-(4-(2-((2R,6S)-2,6-bis(3-methylpyridin-2-yl)piperidin-1-yl)ethyl)piperazine-1-carbonyl)phenyl)-7H-pyrrolo[2,3-d]pyrimidin-4-yl)-2-methylphenyl)benzamide]
- Selectivity Score [1]: 0.053
- kinase selectivity profile ([1]; panel of approximately 336 wild-type kinases, in words): surprisingly high selectivity for BTK inhibition
- inhibition at 1 µM (RIPK2): < 50%
- inhibition at 1 µM (EPHB2): < 50%
- inhibition at 1 µM (FGR): < 50%
- inhibition at 1 µM (HCK): < 50%
- inhibition at 1 µM (RAF1 YDYD): < 50%
- inhibition at 1 µM (ABL1; at 1 μM, read-out: inhibition of ABL1): 50 to 89%
- inhibition at 1 µM (ABL1; [2]): 70 to 89%
- inhibition at 1 µM (CLK1; at 1 μM, read-out: inhibition of CLK1): 50 to 89%
- inhibition at 1 µM (CLK1; [3]): 50 to 69%
- inhibition at 1 µM (MAP3K11; at 1 μM, read-out: inhibition of MAP3K11): 50 to 89%
- inhibition at 1 µM (MAP3K11; [4]): 50 to 69%
- inhibition at 1 µM (MINK1): < 50%
- inhibition at 1 µM (BTK; 1 μM, read-out: inhibitor effect on BTK): ≥ 90%
- inhibition at 1 µM (BTK; [5]): 90 to 100%

Compound: Cc1cccnc1[C@H]1CCC[C@@H](c2ncccc2C)N1CCCCNC(=O)OC[C@@H]1CC[C@@H](Nc2ncnc3[nH]cc(C(=O)c4ccc(Oc5ccccc5)cc4Cl)c23)CO1 [Compound I-18]
- Selectivity Score [1]: 0.221

Compound: Cc1cc(-c2ccnc(Nc3cnn(CCN4[C@@H](c5ncccc5C)CCC[C@H]4c4ncccc4C)c3)n2)ccc1CNC(=O)N1CC(OC(C)C)C1 [Compound I-11]
- Selectivity Score [1]: 0.032

Compound: Cc1cccnc1[C@H]1CCC[C@@H](c2ncccc2C)N1CCCCNC(=O)[C@@H]1CC[C@@H](Nc2ncnc3[nH]cc(C(=O)c4ccc(Oc5ccccc5)cc4Cl)c23)CO1 [Compound I-16]
- Selectivity Score [1]: 0.265
